Experimental data reported in patent US9273057B2 (Bristol-Myers Squibb Company, priority 2012, dated 2016).
pIC50: −log10 of the molar value. Counter-ions that a name gives are not always drawn.

Biological target: CK2A1 (CK2α/β) (Homo sapiens, UniProt P68400)
Experiment: CK2 kinase assay, CK2A1 (CK2α/β)
Assay type: biochemical
Conditions: Table A; read-out: CK2A1 (CK2α/β) (IC50)

Chain of CK2A1 (CK2α/β) (P68400 whole entry, species assumed): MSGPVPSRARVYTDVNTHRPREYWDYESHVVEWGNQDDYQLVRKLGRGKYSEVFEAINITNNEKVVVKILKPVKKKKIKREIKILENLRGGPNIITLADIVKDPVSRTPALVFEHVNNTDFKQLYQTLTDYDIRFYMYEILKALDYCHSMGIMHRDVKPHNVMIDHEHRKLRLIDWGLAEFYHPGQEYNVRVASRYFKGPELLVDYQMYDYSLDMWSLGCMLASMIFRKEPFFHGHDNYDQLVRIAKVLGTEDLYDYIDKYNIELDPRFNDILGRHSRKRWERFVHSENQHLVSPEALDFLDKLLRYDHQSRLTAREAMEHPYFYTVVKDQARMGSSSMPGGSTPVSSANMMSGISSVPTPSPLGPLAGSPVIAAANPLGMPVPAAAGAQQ
Chain of CK2A1 (CK2α/β) (P67870 whole entry partner, species assumed): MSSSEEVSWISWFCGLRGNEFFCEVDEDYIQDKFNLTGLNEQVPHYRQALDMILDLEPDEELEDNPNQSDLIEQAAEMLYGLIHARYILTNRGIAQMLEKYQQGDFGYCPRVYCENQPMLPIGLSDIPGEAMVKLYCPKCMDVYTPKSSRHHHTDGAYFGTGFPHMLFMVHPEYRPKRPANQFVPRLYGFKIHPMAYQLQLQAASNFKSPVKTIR

pIC50	Compound
8.85	N#Cc1cc(Nc2nc(NC3CC3)c3ncc(C#N)n3n2)c(Cl)c(N2CCN([C@H]3C[C@H](F)C3)CC2)c1 [Example 601, 2-[(2-chloro-5-cyano-3-{4-[(1r,3r)-3-fluorocyclobutyl]piperazin-1-yl}phenyl)amino]-4-(cyclopropylamino)imidazo [2,1-f][1,2,4]triazine-7-carbonitrile]
9.04	N#Cc1cc(Nc2nc(NC3CC3)c3ncc(C#N)n3n2)c(Cl)c(N2CCN([C@@H]3CS(=O)(=O)C[C@H]3O)CC2)c1 (racemic) [Example 535, rac-2-((2-chloro-5-cyano-3-(4-((3R,4R)-4-hydroxy-1,1-dioxidotetrahydrothiophen-3-yl)piperazin-1-yl)phenyl)amino)-4-(cyclopropylamino)imidazo[2,1-f][1,2,4]triazine-7-carbonitrile]
9.19	CS(=O)(=O)N1CCN(c2cc(C#N)cc(Nc3nc(NC4CC4)c4ncc(C#N)n4n3)c2Cl)CC1 [Example 4, 2-((2-chloro-5-cyano-3-(4-(methylsulfonyl)-1-piperazinyl)phenyl)amino)-4-(cyclopropylamino)imidazo [2,1-f][1,2,4]triazine-7-carbonitrile]
9.52	N#Cc1cc(CN2CCNC(=O)C2)c(Cl)c(Nc2nc(NC3CC3)c3ncc(C#N)n3n2)c1 [Example 666, 2-((2-chloro-5-cyano-3-((3-oxopiperazin-1-yl)methyl)phenyl)amino)-4-(cyclopropylamino)imidazo[2,1-f][1,2,4]triazine-7-carbonitrile]
8.97	CN[C@@H]1CCN(c2cc(C#N)cc(Nc3nc(NC4CC4)c4ncc(C#N)n4n3)c2Cl)C[C@H]1O (racemic) [Example 186, (+/−)-2-((2-chloro-5-cyano-3-((3R,4R)-3-hydroxy-4-(methylamino)piperidin-1-yl)phenyl)amino)-4-(cyclopropylamino)imidazo[2,1-f][1,2,4]triazine-7-carbonitrile]
9.16	COCC(=O)N1CCN(c2cc(C#N)cc(Nc3nc(NC4CC4)c4ncc(C#N)n4n3)c2Cl)CC1 [Example 77]
9.19	CC(C)(O)C1CCN(C2CN(c3cc(C#N)cc(Nc4nc(NC5CC5)c5ncc(C#N)n5n4)c3Cl)C2)CC1 [Example 158]
8.39	CC(F)(F)C(=O)N1CC(N2CCN(c3cc(C#N)cc(Nc4nc(NC5CC5)c5ncc(C#N)n5n4)c3Cl)CC2)C1 [Example 516, 2-[(2-chloro-5-cyano-3-{4-[1-(2,2-difluoropropanoyl)azetidin-3-yl]piperazin-1-yl}phenyl)amino]-4-(cyclopropylamino)imidazo[2,1-f][1,2,4]triazine-7-carbonitrile]
9.10	CN(C)C(=O)C1CN(c2cc(C#N)cc(Nc3nc(NC4CC4)c4ncc(C#N)n4n3)c2Cl)CCN1 (centres unmarked) [Example 563, 4-(2-chloro-5-cyano-3-((7-cyano-4-(cyclopropylamino)imidazo[2,1-f][1,2,4]triazin-2-yl)amino)phenyl)-N,N-dimethylpiperazine-2-carboxamide]
9.17	COC(=O)N[C@@H]1CN(c2cc(C#N)cc(Nc3nc(NC4CC4)c4ncc(C#N)n4n3)c2Cl)C[C@@H]1C (racemic) [Example 11, (+/−) methyl ((3S,4S)-1-(2-chloro-5-cyano-3-((7-cyano-4-(cyclopropylamino)imidazo [2,1-f][1,2,4]triazin-2-yl)amino)phenyl)-4-methyl-3-pyrrolidinyl)carbamate]
9.46	CC(C)(O)[C@@H]1CN(c2cc(C#N)cc(Nc3nc(NC4CC4)c4ncc(C#N)n4n3)c2Cl)CCO1 [Example 37, 2-((2-chloro-5-cyano-3-((2S)-2-(1-hydroxy-1-methylethyl)-4-morpholinyl)phenyl)amino)-4-(cyclopropylamino)imidazo [2,1-f][1,2,4]triazine-7-carbonitrile]
9.22	N#Cc1cc(Nc2nc(NC3CC3)c3ncc(C#N)n3n2)c(Cl)c(N2CCN(C3CN(C(=O)CO)C3)CC2)c1 [Example 488, 2-[(2-chloro-5-cyano-3-{4-[1-(2-hydroxyacetyl)azetidin-3-yl]piperazin-1-yl}phenyl)amino]-4-(cyclopropylamino)imidazo[2,1-f][1,2,4]triazine-7-carbonitrile]
9.42	CC1CN(c2cc(C#N)cc(Nc3nc(NC4CC4)c4ncc(C#N)n4n3)c2Cl)CCN1C (racemic) [Example 35, (+/−) 2-((2-chloro-5-cyano-3-(3,4-dimethyl-1-piperazinyl)phenyl)amino)-4-(cyclopropylamino)imidazo [2,1-f][1,2,4]triazine-7-carbonitrile]
9.18	COC(=O)N[C@@H]1CN(c2cc(C#N)cc(Nc3nc(NC4CC4)c4ncc(C#N)n4n3)c2Cl)C[C@H]1O (racemic) [Example 9, (+/−) methyl ((3R,4R)-1-(2-chloro-5-cyano-3-((7-cyano-4-(cyclopropylamino)imidazo [2,1-f][1,2,4]triazin-2-yl)amino)phenyl)-4-hydroxy-3-pyrrolidinyl)carbamate]
8.10	N#Cc1cc(Nc2nc(NC3CC3)c3ncc(C#N)n3n2)c(Cl)c(N2CCN(C3CCCC3F)CC2)c1 (centres unmarked) [Example 587, 2-({2-chloro-5-cyano-3-[4-(2-fluorocyclopentyl)piperazin-1-yl]phenyl}amino)-4-(cyclopropylamino)imidazo [2,1-f][1,2,4]triazine-7-carbonitrile]
9.03	N#Cc1cc(Nc2nc(NC3CC3)c3ncc(C#N)n3n2)c(Cl)c(N2CCN(C(CO)CO)CC2)c1 [Example 539, 2-((2-chloro-5-cyano-3-(4-(1,3-dihydroxypropan-2-yl)piperazin-1-yl)phenyl)amino)-4-(cyclopropylamino)imidazo[2,1-f][1,2,4]triazine-7-carbonitrile]

The remaining lines, values behind:

Compound	pIC50
N#Cc1cc(Nc2nc(NC3CC3)c3ncc(C#N)n3n2)c(Cl)c(C2CN(C3COC3)C2)c1 [Example 358, 2-((2-chloro-5-cyano-3-(1-(oxetan-3-yl)azetidin-3-yl)phenyl)amino)-4-(cyclopropylamino)imidazo[2,1-f][1,2,4]triazine-7-carbonitrile]	9.06
N#Cc1cc(CNCC2CC2)c(Cl)c(Nc2nc(NC3CC3)c3ncc(C#N)n3n2)c1 [Example 470]	8.82
N#Cc1cc(CN2CCN(C3COC3)CC2)c(Cl)c(Nc2nc(NC3CC3)c3ncc(C#N)n3n2)c1 [Example 403, 2-((2-chloro-5-cyano-3-((4-(oxetan-3-yl)piperazin-1-yl)methyl)phenyl)amino)-4-(cyclopropylamino)imidazo[2,1-f][1,2,4]triazine-7-carbonitrile HCl salt]	9.16
CC(CC(C)N1CC(C)(O)C1)c1cc(Cl)c(Nc2nc(NC3CC3)c3ncc(C#N)n3n2)cc1C#N (centres unmarked) [Example 736, 2-({2-chloro-5-cyano-4-[4-(3-hydroxy-3-methylazetidin-1-yl)pentan-2-yl]phenyl}amino)-4-(cyclopropylamino)imidazo [2,1-f][1,2,4]triazine-7-carbonitrile]	8.31
N#Cc1cc(Nc2nc(NC3CC3)c3ncc(C#N)n3n2)c(Cl)c(N2CCN(C3CN(C(=O)CN4CCOCC4)C3)CC2)c1 [Example 493, 2-{[2-chloro-5-cyano-3-(4-{1-[2-(morpholin-4-yl)acetyl]azetidin-3-yl}piperazin-1-yl)phenyl]amino}-4-(cyclopropylamino)imidazo[2,1-f][1,2,4]triazine-7-carbonitrile]	8.69
COC(=O)Nc1cc(Nc2nc(NC3CC3)c3ncc(C#N)n3n2)c(Cl)c(N2CC(N3CCC(OC)CC3)C2)c1 [Example 204, methyl (4-chloro-3-((7-cyano-4-(cyclopropylamino)imidazo[2,1-f][1,2,4]triazin-2-yl)amino)-5-(3-(4-methoxy-1-piperidinyl)-1-azetidinyl)phenyl)carbamate]	9.06
N#Cc1cc(Nc2nc(NC3CC3)c3ncc(C#N)n3n2)c(Cl)c(N2CCN(C(=O)CCCS(N)(=O)=O)CC2)c1 [Example 93, 4-(4-(2-chloro-5-cyano-3-((7-cyano-4-(cyclopropylamino)imidazo[2,1-f][1,2,4]triazin-2-yl)amino)phenyl)-1-piperazinyl)-4-oxo-1-butanesulfonamide]	9.34
N#Cc1cc(Nc2nc(NC3CC3)c3ncc(C#N)n3n2)c(Cl)c(N2CCN(C(=O)CCCn3ccnc3)CC2)c1 [Example 96, 2-((2-chloro-5-cyano-3-(4-(4-(1H-imidazol-1-yl)butanoyl)-1-piperazinyl)phenyl)amino)-4-(cyclopropylamino) imidazo[2,1-f][1,2,4] triazine-7-carbonilrile]	9.20
Cn1cnc2cc(Nc3nc(NC4CC4)c4ncc(C#N)n4n3)ccc21 [Example 3, 4-(cyclopropylamino)-2-((1-methyl-1H-benzimidazol-5-yl)amino)imidazo[2,1-f][1,2,4]triazine-7-carbonitrile]	9.38
CC(C)(O)CC1(N2CCN(c3cc(C#N)cc(Nc4nc(NC5CC5)c5ncc(C#N)n5n4)c3Cl)CC2)COC1 [Example 536, 2-((2-chloro-5-cyano-3-(4-(3-(2-hydroxy-2-methylpropyl)oxetan-3-yl)piperazin-1-yl)phenyl)amino)-4-(cyclopropylamino)imidazo[2,1-f][1,2,4]triazine-7-carbonitrile]	8.81
N#Cc1cc(Nc2nc(NC3CC3)c3ncc(C#N)n3n2)c(Cl)c(N2CCN(C(=O)OCC3(CO)COC3)CC2)c1 [Example 533, (3-(hydroxymethyl)oxetan-3-yl)methyl 4-(2-chloro-5-cyano-3-((7-cyano-4-(cyclopropylamino)imidazo[2,1-f][1,2,4]triazin-2-yl)amino)phenyl)piperazine-1-carboxylate]	9.37
N#Cc1cnc2c(NC3CC3)nc(Nc3cc(OC(F)F)cc(N4CCNCC4)c3Cl)nn12 [Example 558, 2-((2-chloro-5-(difluoromethoxy)-3-(piperazin-1-yl)phenyl)amino)-4-(cyclopropylamino)imidazo[2,1-f][1,2,4]triazine-7-carbonitrile]	8.27
CCNc1nc(Nc2cc(C#N)cc(N3CC[C@@H](NC(=O)OC)[C@H](OC(=O)[C@@H](NC(=O)[C@@H](N)CCCCN)C(C)C)C3)c2Cl)nn2c(C#N)cnc12 [Example 822, (S)-(3R,4R)-1-(2-chloro-5-cyano-3-((7-cyano-4-(ethylamino)imidazo[2,1-f][1,2,4]triazin-2-yl)amino)phenyl)-4-((methoxycarbonyl)amino)piperidin-3-yl 2-((S)-2,6-diaminohexanamido)-3-methylbutanoate dihydrochloride]	8.76
